In patent US20090162280A1, “DETECTING SOLUBLE A-BETA” (GENERAL ELECTRIC COMPANY, priority 2007, published 2009):

How the values were obtained:
[1] = target: T1, soluble A-beta oligomers (beta-amyloid 1-42 oligomer, 20% biotin) (Homo sapiens, UniProt P05067); experiment: SPA competition binding against tritium labeled 49b on soluble A-beta oligomers; conditions: for % inhibition: 50 uM unlabeled competitor, 130 nM tritium labeled-49b; for IC50: 130 nM 3H-49b, unlabeled competitor
T1 construct: 1 mg of human beta-amyloid 1-42 (H-1368, Bachem); purchased Bachem H-1368 (unlabelled), H-5642 (biotinylated)
Description: A. Soluble A-beta. 1 mg of human beta-amyloid 1-42 (H-1368, Bachem) and 500 uL of 1,1,1,3,3,3 hexafluoro-2-propanol (HFIP) (Aldrich) were chilled in separate bottles on ice for 30 minutes. Cold beta-amyloid 1-42 was solubilized with cold HFIP. The mixture was incubated for 1 hr at room temperature until it turned clear. The resulting solution was then dried to a film under vacuum. The film was dissolved again in cold HFIP and incubated another 1 hr at room temperature. The resulting solution was separated into aliquots in several microcentrifuge tubes. HFIP was removed under vacuum, and the films were stored at −20° C. until use. To prepare soluble oligomer, the film was dissolved in appropriate amount of dry DMSO (Sigma), and Ham's F12 media (Biosource) or PBS (Sigma, D8537) was added and incubated at 4° C. for 24 hours (final concentration of 200 uM or 0.9 mg/mL beta-amyloid in 2% DMSO). The tube containing the soluble oligomers was centrifuged at 13,000 rpm for 5 minutes, and its supernatant was transferred to a clean tube.
The three compounds shown in Table 1 were synthesized and evaluated for their ability to bind to soluble A-beta using the scintillation proximity assays (SPA) and/or AFM as described below. The percent inhibition reported was for 50 uM of the indicated unlabeled competitor and 130 nM of tritium labeled-49b.
(§1) For SPA and atomic force microscopy experiments, preparations of soluble oligomers and fibrils contained 20% biotinylated beta-amyloid 1-42 and 1-40, respectively (H-5642, H-5914, Bachem).
Lyophilized Streptavidin-Ysi beads (GE Healthcare) were reconstituted to 100 mg/mL in deionized water, and then further diluted in deionized water to give a suspension containing 0.25 mg/10 μL water. Unlabeled 49b, PIB and compound of formula III (353207) were dissolved in DMSO to give a final stock concentration of 15 mM.
For the saturation-binding assay, isotopic dilution of radiolabeled 49b with unlabeled 49b was performed. ^3H-49b was added to 500 uM of unlabeled 49b to a final concentration of 50 μCi/mL ^3H-49b. The probe solution was then serially diluted in PBS to give six solutions giving 6.6, 13.1, 26.3, 52.5, 105, or 210 uM in the final assay well. Each concentration of the probe solution was incubated with 12 μg beta-amyloid 1-42 oligomer (20% biotin) or 1-40 (20% biotin) fibrils in a total volume of 90 μL. Assays were incubated at room temp for 2 hrs before addition of 10 μL YSi-streptavidin (0.25 mg) SPA bead. Assays were set-up in triplicate in 96-well NBS plates (Costar). Assays were incubated overnight and counted the following morning. […] The specific activities of four probes were different, however the level of activity was the same at the concentrations where the probes were tested. […]

[2] = target: T1, soluble A-beta oligomers (beta-amyloid 1-42 oligomer, 20% biotin); experiment: SPA saturation / direct binding of tritium labeled probes to soluble A-beta oligomers
Description: For the saturation-binding assay, isotopic dilution of radiolabeled 49b with unlabeled 49b was performed. ^3H-49b was added to 500 uM of unlabeled 49b to a final concentration of 50 μCi/mL ^3H-49b. The probe solution was then serially diluted in PBS to give six solutions giving 6.6, 13.1, 26.3, 52.5, 105, or 210 uM in the final assay well. Each concentration of the probe solution was incubated with 12 μg beta-amyloid 1-42 oligomer (20% biotin) or 1-40 (20% biotin) fibrils in a total volume of 90 μL. Assays were incubated at room temp for 2 hrs before addition of 10 μL YSi-streptavidin (0.25 mg) SPA bead. Assays were set-up in triplicate in 96-well NBS plates (Costar). Assays were incubated overnight and counted the following morning. […] Assay conditions were the same as described in saturation binding assay.
(§2) Data analyses were performed using Sigma Plot or GraphPad Prism® version 4. Curves were fitted using non-linear regression. KD values and IC50 values were estimated from the binding curves.
A direct binding assay using tritium labeled 49b was performed against oligomers or fibrils by scintillation proximity assay (SPA). Beta-amyloid containing 20% biotin and tritiated 49b were incubated in solution for two hours prior to addition of the Ysi-Streptavidin beads.

[3] = target: T2, beta-amyloid 1-40 fibrils (20% biotin) (Homo sapiens, UniProt P05067); experiment: SPA saturation binding of 3H-49b to 1-40 fibrils; conditions: same conditions as for soluble oligomers; compared with oligomers
T2 construct: Lyophilized human beta-amyloid 1-40 peptide (Catalog number H-1194, Bachem); purchased Bachem H-1194 (unlabelled), H-5914 (biotinylated)
Description: B. Insoluble A-beta (1-40) fibril formation: Lyophilized human beta-amyloid 1-40 peptide (Catalog number H-1194, Bachem) was solubilized with HFIP to produce a dry clear film following the process described above for beta-amyloid 1-42. The clear film of beta-amyloid 1-40 was diluted with 10 mM phosphate buffer, pH 7.4, containing 1 mM EDTA, such that final Aβ concentration was 0.5 mg/ml, then mixed briefly. The solution was incubated at 37° C. on an orbital shaker set at 200 rpm for 48 h. A cloudy solution was produced, and the fibril production was confirmed by measuring changes in fluorescence of Thioflavin T, as well as by atomic force microscopy and transmission electron microscopy. Fibrils were used immediately after their production was confirmed.
as §1
For the saturation-binding assay, isotopic dilution of radiolabeled 49b with unlabeled 49b was performed. ^3H-49b was added to 500 uM of unlabeled 49b to a final concentration of 50 μCi/mL ^3H-49b. The probe solution was then serially diluted in PBS to give six solutions giving 6.6, 13.1, 26.3, 52.5, 105, or 210 uM in the final assay well. […] Assays were incubated overnight and counted the following morning. […]

1-42 fibrils = 1-42 fibrils (Homo sapiens, UniProt P05067); experiment: SPA binding of 3H-49b to 1-42 fibrils; conditions: same conditions used to measure binding to soluble oligomers
Aβ 1-40 fibrils = target: T3, Aβ 1-40 fibrils (Homo sapiens, UniProt P05067); experiment: SPA competition binding against 3H-PIB on A-beta fibrils; conditions: ~30 nM [3H]PIB, 10 μg Aβ 1-40 fibrils, unlabeled competitor
T3 construct: Lyophilized human beta-amyloid 1-40 peptide (Catalog number H-1194, Bachem); purchased Bachem H-1194 (unlabelled), H-5914 (biotinylated)
Description: For the ^3H-PIB binding reaction, 10 μg Aβ 1-40 fibrils were incubated with ˜30 nM [^3H]PIB in the presence of the unlabeled competitors in a total volume of 90 μl PBS. […] Non-specific binding wells contained PBS instead of fibril/oligomer. Assays were incubated at room temperature for 2 hr before addition of 10 μl YSi-streptavidin bead (0.13 mg). Assays were shaken for 1 min and then incubated overnight before counting the following morning using Microbeta.
as §2

[4] = saturation binding with oligomers

T1 sequence (P05067 672-713): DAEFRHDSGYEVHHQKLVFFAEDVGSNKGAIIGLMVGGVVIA
T3 sequence (P05067 672-711): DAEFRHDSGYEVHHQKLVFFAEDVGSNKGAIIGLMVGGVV
Sequence of 1-42 fibrils (P05067 672-713): as the sequence (P05067 672-713) above
T2 sequence (P05067 672-711): as the sequence (P05067 672-711) above

| SMILES | % inhibition [1] [%] | Kd ([2]; 3H-49b isotopically diluted with unlabeled 49b, incubated with oligomers, read-out: binding constant (saturation binding)) [µM] | specificity, oligomers over fibrils ([2]; direct binding of 3H-49b, oligomers versus fibrils) | Bmax [2, 4] | molar ratio probe:beta-amyloid at Bmax [2, 4] | binding to 1-40 fibrils [3] | affinity for 1-42 fibrils (1-42 fibrils) | competition of tritium labeled PIB binding to fibrils (in words) (Aβ 1-40 fibrils) | IC50 [1] [µM] |
| --- | --- | --- | --- | --- | --- | --- | --- | --- | --- |
| CNc1ccc(-c2nc3ccc(O)cc3s2)cc1 [Formula I, 2-(4-methylamino)phenylbenzothiazol-6-ol, reference compound] | 3 |  |  |  |  |  |  |  |  |
| O=Cc1ccc(-c2oc3ccccc3c2CO)o1 [Formula II, 2-(2-formyl-5-furanyl)-3-hydroxymethyl benzofuran] |  | 50 | showed specificity to oligomers over fibrils | 60-80 nmol/mg beta-amyloid | 1 probe:3-4 beta-amyloid | Much less binding was observed | no measurable affinity could be determined | not competed | 60 |
| O=C(Nc1ccc(O)c(C(=O)O)c1)c1ccc(-c2ccc(C(=O)Nc3ccc(O)c(C(=O)O)c3)cc2)cc1 [Formula III] | 82 |  |  |  |  |  |  | did not compete | 1 to 7 |
